In PubChem BioAssay AID2060618 (Molecular Pharmacology Branch, DTP, NCI, 2025):

System: 454973-116-R2-J3-PDC spheroids, percent test/control viability
Test: Anticancer human tumor 454973-116-R2-J3-PDC patient-derived pancreatic carcinoma cell line growth inhibition [CLK]
Conditions: spheroids with HUVEC and MSC; for IC50: curve of first compound; for viability, T/C: stronger effect = lower value
Outline: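 Multi-cell-type spheroids combined patient-derived tumor cells with HUVEC endothelial cells and human mesenchymal stem cells. Paired agents were dosed in half-log steps down from about clinical Cmax, or from 10 microM where Cmax was unknown.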

[1] = second compound 0.0316 µM, first compound 0.0316 µM
[2] = second compound 0.0316 µM, first compound 0.1 µM
[3] = second compound 0.1 µM, first compound 0.0316 µM
[4] = second compound 0.1 µM, first compound 0.1 µM
[5] = second compound 0.316 µM, first compound 0.0316 µM
[6] = second compound 0.316 µM, first compound 0.1 µM
[7] = second compound 1 µM, first compound 0.0316 µM
[8] = second compound 1 µM, first compound 0.1 µM
[9] = second compound 3.16 µM, first compound 0.0316 µM
[10] = second compound 3.16 µM, first compound 0.1 µM
[11] = second compound 10 µM, first compound 0.0316 µM
[12] = second compound 10 µM, first compound 0.1 µM
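Note: spheroids exposed to compounds for 7 days before readout.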

What does the source list for Cn1ncnc1[C@H]1c2n[nH]c(=O)c3cc(F)cc(c23)N[C@@H]1c1ccc(F)cc1 + CN1CCN(c2cc(C(=O)Nc3cc4cc(-c5cnn(C)c5)ccc4cn3)ccn2)CC1?
IC50 (second compound 0.0316 µM): > 0.1 µM; IC50 (second compound 0.1 µM): > 0.1 µM; IC50 (second compound 0.316 µM): < 0.000316 µM; IC50 (second compound 1 µM): < 0.000316 µM; IC50 (second compound 3.16 µM): < 0.000316 µM; IC50 (second compound 10 µM): < 0.000316 µM; viability, T/C (second compound 0.0316 µM, first compound 0.000316 µM): 93.9%; viability, T/C (second compound 0.0316 µM, first compound 0.001 µM): 99%; viability, T/C (second compound 0.0316 µM, first compound 0.00316 µM): 90.5%; viability, T/C (second compound 0.0316 µM, first compound 0.01 µM): 92.9%; viability, T/C [1]: 91.2%; viability, T/C [2]: 85%; viability, T/C (second compound 0.1 µM, first compound 0.000316 µM): 75.4%; viability, T/C (second compound 0.1 µM, first compound 0.001 µM): 75%; viability, T/C (second compound 0.1 µM, first compound 0.00316 µM): 83.2%; viability, T/C (second compound 0.1 µM, first compound 0.01 µM): 71.3%; viability, T/C [3]: 59.1%; viability, T/C [4]: 50.1%; viability, T/C (second compound 0.316 µM, first compound 0.000316 µM): 1.91%; viability, T/C (second compound 0.316 µM, first compound 0.001 µM): 2.28%; viability, T/C (second compound 0.316 µM, first compound 0.00316 µM): 3.23%; viability, T/C (second compound 0.316 µM, first compound 0.01 µM): 4.91%; viability, T/C [5]: 2.64%; viability, T/C [6]: 2.84%; viability, T/C (second compound 1 µM, first compound 0.000316 µM): 0.1%; viability, T/C (second compound 1 µM, first compound 0.001 µM): 1.11%; viability, T/C (second compound 1 µM, first compound 0.00316 µM): 0.09%; viability, T/C (second compound 1 µM, first compound 0.01 µM): 0.08%; viability, T/C [7]: 0.09%; viability, T/C [8]: 0.1%; viability, T/C (second compound 3.16 µM, first compound 0.000316 µM): 0.09%; viability, T/C (second compound 3.16 µM, first compound 0.001 µM): 0.12%; viability, T/C (second compound 3.16 µM, first compound 0.00316 µM): 0.1%; viability, T/C (second compound 3.16 µM, first compound 0.01 µM): 1.05%; viability, T/C [9]: 1.67%; viability, T/C [10]: 0.12%; viability, T/C (second compound 10 µM, first compound 0.000316 µM): 0.11%; viability, T/C (second compound 10 µM, first compound 0.001 µM): 0.16%; viability, T/C (second compound 10 µM, first compound 0.00316 µM): 0.17%; viability, T/C (second compound 10 µM, first compound 0.01 µM): 0.29%; viability, T/C [11]: 0.12%; viability, T/C [12]: 0.14%

O=C(c1cc(Cc2n[nH]c(=O)c3ccccc23)ccc1F)N1CCN(C(=O)C2CC2)CC1 + CN1CCN(c2cc(C(=O)Nc3cc4cc(-c5cnn(C)c5)ccc4cn3)ccn2)CC1 was tested. Which IC50 (second compound 0.0316 µM) did it give?
The IC50 was greater than 10 µM.

And the IC50 (second compound 0.1 µM)?
Its IC50 is 5.86 µM.

And the IC50 (second compound 0.316 µM)?
Its IC50 is less than 0.0316 µM.

And the IC50 (second compound 1 µM)?
Its IC50 is less than 0.0316 µM.

What about the IC50 (second compound 3.16 µM) of the same compound?
The IC50 was less than 0.0316 µM.

And the IC50 (second compound 10 µM)?
Its IC50 is less than 0.0316 µM.

And the viability, T/C [1]?
The viability, T/C was 99%.

And the viability, T/C [2]?
Its viability, T/C is 99.5%.

What about the viability, T/C (second compound 0.0316 µM, first compound 0.316 µM) of the same compound?
The viability, T/C was 101%.

What about the viability, T/C (second compound 0.0316 µM, first compound 1 µM) of the same compound?
The viability, T/C was 115%.

And the viability, T/C (second compound 0.0316 µM, first compound 3.16 µM)?
Its viability, T/C is 94.7%.

And the viability, T/C (second compound 0.0316 µM, first compound 10 µM)?
Its viability, T/C is 71.8%.

And the viability, T/C [3]?
The viability, T/C was 75.8%.

What about the viability, T/C [4] of the same compound?
Its viability, T/C is 77%.

And the viability, T/C (second compound 0.1 µM, first compound 0.316 µM)?
The viability, T/C was 73.5%.

What about the viability, T/C (second compound 0.1 µM, first compound 1 µM) of the same compound?
Its viability, T/C is 75.7%.

What about the viability, T/C (second compound 0.1 µM, first compound 3.16 µM) of the same compound?
Its viability, T/C is 62.5%.

And the viability, T/C (second compound 0.1 µM, first compound 10 µM)?
Its viability, T/C is 38%.

And the viability, T/C [5]?
Its viability, T/C is 1.44%.

And the viability, T/C [6]?
Its viability, T/C is 2.27%.

What about the viability, T/C (second compound 0.316 µM, first compound 0.316 µM) of the same compound?
Its viability, T/C is 1.78%.

And the viability, T/C (second compound 0.316 µM, first compound 1 µM)?
The viability, T/C was 1.98%.

What about the viability, T/C (second compound 0.316 µM, first compound 3.16 µM) of the same compound?
Its viability, T/C is 2.16%.

What about the viability, T/C (second compound 0.316 µM, first compound 10 µM) of the same compound?
The viability, T/C was 2.03%.

And the viability, T/C [7]?
The viability, T/C was 0.12%.

What about the viability, T/C [8] of the same compound?
Its viability, T/C is 0.14%.

And the viability, T/C (second compound 1 µM, first compound 0.316 µM)?
Its viability, T/C is 1.94%.

What about the viability, T/C (second compound 1 µM, first compound 1 µM) of the same compound?
Its viability, T/C is 0.08%.

And the viability, T/C (second compound 1 µM, first compound 3.16 µM)?
Its viability, T/C is 0.83%.

And the viability, T/C (second compound 1 µM, first compound 10 µM)?
Its viability, T/C is 0.08%.

And the viability, T/C [9]?
Its viability, T/C is 0.13%.

What about the viability, T/C [10] of the same compound?
The viability, T/C was 0.21%.

What about the viability, T/C (second compound 3.16 µM, first compound 0.316 µM) of the same compound?
Its viability, T/C is 0.33%.

And the viability, T/C (second compound 3.16 µM, first compound 1 µM)?
Its viability, T/C is 0.13%.

And the viability, T/C (second compound 3.16 µM, first compound 3.16 µM)?
Its viability, T/C is 0.29%.

What about the viability, T/C (second compound 3.16 µM, first compound 10 µM) of the same compound?
The viability, T/C was 0.27%.

What about the viability, T/C [11] of the same compound?
Its viability, T/C is 1.42%.

And the viability, T/C [12]?
The viability, T/C was 0.14%.

What about the viability, T/C (second compound 10 µM, first compound 0.316 µM) of the same compound?
Its viability, T/C is 0.17%.

What about the viability, T/C (second compound 10 µM, first compound 1 µM) of the same compound?
Its viability, T/C is 0.13%.

What about the viability, T/C (second compound 10 µM, first compound 3.16 µM) of the same compound?
Its viability, T/C is 0.39%.

And the viability, T/C (second compound 10 µM, first compound 10 µM)?
Its viability, T/C is 0.22%.
